According to US6025387A, “Gastroprotective flavone/flavanone compounds with therapeutic effect on inflammatory bowel disease” (Dong a Pharmaceutical Co., Ltd., priority 1996, dated 2000):
Values after ≈ are worked out from the molar mass of the structure shown.

What was measured:
[1] = system: chronic gastritis induced with acetic acid; test: Model of chronic gastritis induced with acetic acid; type: in vivo, SD male rat; settings: once a day for 21 days, rat
Protocol: Experiment on the Model of Chronic Gastritis Induced with Acetic Acid
From the next day of the surgical operation, the compound was orally administered once a day for 21 days. After 21 days, the stomach was extracted under ether anesthesis, dipped in 1% formalin solution and the area of gastric lesion was measured. […] An pathological tissue autopsy was carried out for the prepared specimen.

TNBS-induced colitis [2] = test: TNBS-induced colitis model, oral administration; type: in vivo, male SD rats; settings: for lesion scores: once a day for 13 days, rat; for adhesion degree / dilation and extention degree: score 0-3, rat
Protocol: (§1) Experiment on the Model of Inflammatory Bowl Diseases Induced with TNBS
(§2) 7 week-aged male SD rats were fasted for a day, and the rats were put under anesthesia and canula (diameter 3 mm) was inserted into the anus to the depth of 8 cm. 25 mg/mL of TNBS (Trinitrobenzene sulfonic acid) dissolved in 50% ethanol solution was injected to each rat and the rats were positioned at feature of tail up for 1 minute. The solution flowing out was removed and the rats were once washed with 1.5 mL of saline solution. After colitis was induced, the compound was administered orally or intracolonically once a day for 13 days. For control, mesalazine (5-amino salicylic acid) was used for oral administration and prednisolone was used for rectal administration. At 14th day of experiment, each group of the rats were put under ether anesthesis, the colon was extracted and the degree of adhesion and extension of the large intestine were measured and their lesion scores were recorded. After 1% formalin solution was injected to the cavity of the extracted colon to inflate, the both ends of it were bonded with each other and it was all-fixed in 1% formalin solution for 2 hours. The all-fixed colon was cut to lengthy direction and washed to remove surrounding fat tissues and connective fissaes. After cecum was removed, the weight of the colon and the rectum was measured, and the area of ulcer lesion, and microscopic lesion were measured to mark scores according to the criterion. And they were fixed in 10% neutral formalin solution, and the tissue examination of lesion site was performed by general method to mark scores according to the criterion.
Clinical symptoms: Daily, we observed clinical symptoms and survival of the animals. And we measured the weight of the animals at the beginning day, third and eighth day of the experiment.
(0: non-adhesion, 1: adhesion exists but easily taken off by gloved hand, 2: more severe adhesion than 1 exists but easily taken off by scissors, 3: very severe adhesion exists, so it is difficult to be taken off by scissors because of possibility of its perforation.)
Degree of thickening and extension of the large intestine: We marked scores of the degree of thickness and extension of the large intestine according to the criterion, following the method of Kim et al., and compared with the average value of each group.
(0: lesion site non-existing, 1: a few degree of lesion, 2: intermediate degree of lesion, 3: severe degree of lesion)
We scored the lesion examined with the naked eye and compared the average value of each group. The standards of lesion scores as criterion of the damage of the colon by Wallace's method is as followings.
(§3) (0: normal, non-damaged, 1: congestion without ulcer 2: congestion and thickening of intestinal wall without ulcer, 3: an ulcer lesion without thickening of intestinal wall, 4: more than two ulcerous/inflammatory lesion, 5: more than two ulcerous/inflammatory lesion or the length of ulcerous/inflammatory lesion is more than 1 cm, 6-10: when the length of lesion is over 2 cm, one point increases everytime 1 cm of the length of ulcerous/inflammatory increases, for example, when the ulcer length is 3 cm, the point is 7.)
Microscopic evaluation: We trimmed the colon giving 3 cm interval from the rectum to the cecum, including the site of lesion examined with the naked eye, to make at least 4 specimens per an individual. […] When the lesion can not be examined with the naked eye, we trimmed the other specimen which has the lesion, with 3 cm interval.

TNBS-induced colitis [3] = test: TNBS-induced colitis model, intracolonic (rectal) administration; type: in vivo, male SD rats; settings: once a day for 13 days, rat
Protocol: as §1
as §2, with “The modified method of Shibata et al. (Dig. Endosc. 1993, 5: 13) was used. 7” for “7”
Macroscopic evaluation: We measured the number and the width of the ulcer and lesion area formed in the large intestine, by using modified Wallace's method (Can. J. Physiol. Pharmacol., 1988, 66: 422). We scored the lesion examined with the naked eye and compared the average value of each group. The standards of lesion scores as criterion of the damage of the colon by Wallace's method is as followings.
as §3

[4] = system: gastric mucosal damage induced by ethanolic HCl; test: Gastritis model induced with ethanolic-HCl; type: in vivo, SD male rat; settings: po, 1 h, rat; for inhibition in vivo at 0.3 mg/kg: 0.3 mg/kg p.o.; for inhibition in vivo at 1 mg/kg: 1 mg/kg p.o.; for inhibition in vivo at 3 mg/kg: 3 mg/kg p.o.
Protocol: Effect on the Gastritis Model Induced with Ethanolic-HCl.
SD male rat(250-350 g) was fasted for 24 hours. The compound was orally administered in suspension of 5% HPMC, and after 1 hour 1.5 mL of 150 mM HCl-80% ethanol was orally administered. After 1 hour the rat was sacrifieced and the stomach was extracted and the ulcer index was measured. The ulcer index was shown by the area of hemorrhage lesion(Mizui, T, et al., Jpn. J. Pharmacol. 1983, 33: 939).

gastric mucus secretion = test: Measurement of gastric mucus; type: in vivo, SD male rat; settings: oral, rat
Protocol: Measurement of Gastric Mucus
The compound was orally administered into SD male rat (200~250 g). After 1 hour the stomach was extracted. The extracted stomach was immediately washed with 10 mL of cold 0.25M sucrose solution. The gastric mucosa was dyed with 0.1% alcian blue solution for 2 hours. After dyeing, the gastric mucosa was washed with 0.25M sucrose solution twice for 15 minutes and for 45 minutes. The dyed gastric mucosa was treated with 10 mL of 30% dioctyl sodium sulfosuccinate solution for 2 hours to extract dyed mucus completely and optical density of aqueous phase was measured spectrophotometrically at 655 nm. The amount of mucus in the gastric mucosa was shown as the amount of alcian blue after calibration (Kitagawa, H., et al., Drug Res. 1986, 36: 1240-1244).

cyclooxygenase = test: Cyclooxygenase activity in HUVEC (PGF1 α synthesis); type: cell-based
Protocol: Measurment of Cyclooxygenase Actvity
After addition of the compound to cultured HUVEC, the HUVEC was incubated at 37° C., for 30 minutes, then arachidonic acid (final concentration: 30 .rho.M) was added, and the HUVEC was additionally incubated at 37° C. for 15 minutes. The culture medium was taken, and the activity of cyclooxygenase for 6-Keto-PGF1 α or PGE2 was measured by radioimmunoassay (Mitchell, J. A., et al., Pro. Natl. Acad. Sci. USA 1994, 90: 11693-11697).
**SC200 (ug/mL) : Concentration at increasing generation of […]

5-lipoxygenase = biological target: T1, 5-lipoxygenase (Rattus norvegicus, UniProt P12527); test: 5-lipoxygenase activity (LTB4 in A23187-stimulated peritoneal neutrophils); type: cell-based
T1 construct: endogenous in cells; host or cells: casein-elicited rat peritoneal neutrophils
T1 sequence (P12527 1-673): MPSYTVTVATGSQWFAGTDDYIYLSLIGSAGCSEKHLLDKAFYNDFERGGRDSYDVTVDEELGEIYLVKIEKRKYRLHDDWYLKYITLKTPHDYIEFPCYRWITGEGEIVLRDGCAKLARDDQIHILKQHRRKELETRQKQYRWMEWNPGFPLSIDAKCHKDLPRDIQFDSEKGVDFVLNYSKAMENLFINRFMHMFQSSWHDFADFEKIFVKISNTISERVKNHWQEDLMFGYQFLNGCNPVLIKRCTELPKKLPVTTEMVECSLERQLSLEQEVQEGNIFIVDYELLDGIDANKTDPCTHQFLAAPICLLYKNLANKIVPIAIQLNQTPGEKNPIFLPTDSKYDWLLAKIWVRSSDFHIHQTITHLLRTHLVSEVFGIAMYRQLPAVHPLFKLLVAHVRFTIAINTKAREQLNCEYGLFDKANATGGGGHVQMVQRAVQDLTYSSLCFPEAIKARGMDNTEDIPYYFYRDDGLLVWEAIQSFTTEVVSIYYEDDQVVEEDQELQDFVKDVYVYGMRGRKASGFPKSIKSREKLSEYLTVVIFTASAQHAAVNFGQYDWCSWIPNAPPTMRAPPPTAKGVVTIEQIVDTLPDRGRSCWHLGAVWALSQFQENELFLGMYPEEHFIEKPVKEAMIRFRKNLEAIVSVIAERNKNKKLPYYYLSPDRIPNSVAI
Protocol: Measurement of 5-lipooxygenase Activity
Modified Safayhi et al.'s method (Safayhi, H., et al., Biochem. Pharmacol. 1985, 34: 2691) was used to this experiment. Peritoneal neutrophil was separated from the rat which was treated with casein solution. The compound was added to 10^7 cells (5×10^6 cells/mL, 2 mL) of neutrophil after 2 minutes Ca^2+ -ionophore, A23187 (1 μg/mL) was added and the mixture was incubared at 37° C. for 10 minutes. The reaction mixture was centrifuged and the supermatant was taken up. The amount of LTB4 in the supermatant was measured by radioimmunoassay.

neutrophils = test: Luminol-dependent chemiluminescence of neutrophils induced by FMLP; type: cell-based; settings: Neutrophil, 1 μM FMLP, 0.07 mM luminol; read-out: IC50, inhibition of chemiluminescence generated by neutrophil activation
Protocol: Measurement of luminol-dependent chemiluminescencei iof neutrophil induced by FMLP.
20 mL of 12% sodium caseinate-0.9% saline was administered intraperitoneally (Newsby, A. C., Biochem. J., 1980, 186: 907,. After 20 hours, the intraperitoneal exudate was extracted under ether anesthesia. The exudate was centrifuged, and erythrocytes were removed by hypotonic lysis, and then neutrophil was washed. Neutrophil was ascertained by Wright's dyeing method, and viability was measured by Trypan blue exclusion test. Chemiluminescence was measured by Topcount (Packard Co.). The suspension of 1.5×10^6 of granulocytes, 1 μM of FMLP, 0.07 mM of luminol and the compound in HBSS was used (Dahlgren, C., et al., Infect. Immun., 1985 47: 326-328).
**IC50 (μg/mL): Concentration of the compound at inhibiting
chemiluminescence generated by neutrophil activation to 50%

In the case of COc1ccc(-c2cc(=O)c3c(OC)c(OC)c(OCC(=O)[O-])cc3o2)cc1OC.[Na+] [7-carboxymethyloxy-3',4',5,6-tetramethoxy flavone sodium salt], the “inhibiting% (gastric lesion)” value ([1]; 0.3 mg/kg p.o.) is reported as 10%, the “inhibiting% (gastric lesion)” value ([1]; 3 mg/kg p.o.) is reported as 29% and the “inhibiting% (gastric lesion)” value ([1]; 10 mg/kg p.o.) is reported as 42%. For the same compound, the lesion scores (TNBS-induced colitis [2]; 1 mg/kg p.o.) was 1.3, the adhesion degree (TNBS-induced colitis [2]; 1 mg/kg p.o.) was 0.5 and the “dilation and extention degree” value (TNBS-induced colitis [2]; 1 mg/kg p.o.) was 0.3. The lesion scores (TNBS-induced colitis [2]; 10 mg/kg p.o.) was 0.8, the adhesion degree (TNBS-induced colitis [2]; 10 mg/kg p.o.) was 0.6 and the “dilation and extention degree” value (TNBS-induced colitis [2]; 10 mg/kg p.o.) was 0.4. For the same compound, the lesion scores (TNBS-induced colitis [3]; 0.3 mg/kg rectally) was 2.56 and the lesion scores (TNBS-induced colitis [3]; 3 mg/kg rectally) was 2.60.

In the case of COc1ccc(-c2cc(=O)c3c(OC)cc(OCC(=O)[O-])cc3o2)cc1OC.[Na+] [7-carboxymethyloxy-3',4',5-trimethoxy flavone sodium salt], the “inhibiting% (gastric lesion)” value ([1]; 0.3 mg/kg p.o.) is reported as 4%, the “inhibiting% (gastric lesion)” value ([1]; 3 mg/kg p.o.) is reported as 83% and the “inhibiting% (gastric lesion)” value ([1]; 10 mg/kg p.o.) is reported as 80%. For the same compound, the lesion scores (TNBS-induced colitis [3]; 0.3 mg/kg rectally) was 4.43 and the lesion scores (TNBS-induced colitis [3]; 3 mg/kg rectally) was 0.86.

COc1ccc(-c2cc(=O)c3c(OC)cc(OCC(=O)O)cc3o2)cc1OC [7-carboxymethyloxy-3',4',5-trimethoxy flavone] was tested, and the inhibition in vivo at 0.3 mg/kg [4] was 58%, the inhibition in vivo at 1 mg/kg [4] was 68% and the inhibition in vivo at 3 mg/kg [4] was 85%. For the same compound, the “gastric mucus secretion, % Control” value (gastric mucus secretion; 0.3 mg/kg) was 126.5 % Control, the “gastric mucus secretion, % Control” value (gastric mucus secretion; 3 mg/kg) was 122.8 % Control and the “gastric mucus secretion, % Control” value (gastric mucus secretion; 30 mg/kg) was 117.9 % Control. The “SC200, concentration increasing generation of PGF1α to 200%” value (cyclooxygenase) was 14.35 µg/mL and the IC50 (5-lipoxygenase) was 35.5 µM.

CCCCCOc1cc2c(=O)cc(-c3ccc(OC)c(OC)c3)oc2cc1OCC(=O)O [7-carboxymethyloxy-3',4'-dimethoxy-6-n-pentyloxy flavone] was tested, and the IC50 (5-lipoxygenase) was 2.8 µM.

For COc1ccc(-c2cc(=O)c3c(O)c(OC)c(OCC(=O)O)cc3o2)cc1OC [7-carboxymethyloxy-5-hydroxy-3',4',6-trimethoxy flavone], the inhibition in vivo at 0.3 mg/kg [4] was 16%, the inhibition in vivo at 1 mg/kg [4] was 77% and the inhibition in vivo at 3 mg/kg [4] was 56%. For the same compound, the IC50 (neutrophils) was 1.73 µg/mL (≈ 4.3 µM) and the “SC200, concentration increasing generation of PGF1α to 200%” value (cyclooxygenase) was 18.41 µg/mL.

In the case of CCCCOc1c(OCC(=O)O)cc2oc(-c3ccc(OC)c(OC)c3)cc(=O)c2c1O [7-carboxymethyloxy-5-hydroxy-6-n-butyloxy-3',4'-dimethoxy flavone], the inhibition in vivo at 0.1 mg/kg ([4]; 0.1 mg/kg p.o.) is reported as 43%, the inhibition in vivo at 1 mg/kg [4] is reported as 61% and the inhibition in vivo at 10 mg/kg ([4]; 10 mg/kg p.o.) is reported as 63%. The “SC200, concentration increasing generation of PGF1α to 200%” value (cyclooxygenase) was 2.41 µg/mL and the IC50 (5-lipoxygenase) was 26.3 µM.

Work on C[C@]12C=CC(=O)C=C1CC[C@@H]1[C@@H]2[C@@H](O)C[C@@]2(C)[C@H]1CC[C@]2(O)C(=O)CO [prednisolone, reference compound] yielded a lesion scores (TNBS-induced colitis [3]; 1 mg/kg rectally) of 0.83.
